The values that follow come from PMC9965614, “Computer-Aided Virtual Screening and In Vitro Validation of Biomimetic Tyrosinase Inhibitory Peptides from Abalone Peptidome” (International Journal of Molecular Sciences, 2023).

Entries after “also recorded” stand apart in the source; their conditions may differ. Where a SMILES comes first, the peptide text is derived from it.

One series has as its target T1, cellular tyrosinase (Mus musculus, UniProt P11344).
T1 construct: the harvested cells were lysed in cell extraction buffer; endogenous in cells; host or cells: B16F10 murine melanoma cells, UVA/UVB-induced
T1 sequence (P11344 19-533): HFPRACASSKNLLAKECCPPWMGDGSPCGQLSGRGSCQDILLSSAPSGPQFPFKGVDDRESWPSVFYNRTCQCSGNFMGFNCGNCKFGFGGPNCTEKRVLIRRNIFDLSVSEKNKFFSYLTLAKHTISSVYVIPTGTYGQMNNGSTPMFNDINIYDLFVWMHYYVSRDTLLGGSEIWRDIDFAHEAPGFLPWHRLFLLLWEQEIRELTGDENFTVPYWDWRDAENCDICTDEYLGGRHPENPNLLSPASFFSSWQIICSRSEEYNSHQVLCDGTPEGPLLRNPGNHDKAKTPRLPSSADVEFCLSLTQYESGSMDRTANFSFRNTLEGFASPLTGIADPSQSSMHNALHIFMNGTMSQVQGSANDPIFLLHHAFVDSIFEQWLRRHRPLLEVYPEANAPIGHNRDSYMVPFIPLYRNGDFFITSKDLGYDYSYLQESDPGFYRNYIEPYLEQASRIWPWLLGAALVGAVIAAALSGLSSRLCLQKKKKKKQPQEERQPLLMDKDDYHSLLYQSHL
Description: Intracellular (cellular) tyrosinase activity assay in UV-induced B16F10 cells. In kind it is cell-based, murine. As to conditions: 70 μM peptide, UVA/UVB-induced B16F10 cells, triplicate. How it is done:
Tyrosinase activity was measured based on Dopa oxidase activity by estimating the dopachrome production according to the method by Qiao et al., 2012 [54], with some modifications. B16F10 cells were seeded at 5 × 10^6 cells/mL in 24-well plates. […] Each well was then washed and replaced with PBS 600 μL and induced with UVA (314-400 nm, 3.0 W) and UVB (280-315 nm, 13.6 W) using OSRAM (Ultra-Vitalux, Germany) for 22 s (0.32 J/cm^2). After that, the cells were incubated with medium 600 μL/well for a further 24 h. Then, the cells were trypsinized and the harvested cells were lysed in cell extraction buffer. After normalized protein concentration, 10 μL of each lysate supernatant was aliquoted into a 96-well plate and shaking incubated in dark conditions with 1 mM L-DOPA 90 μL in PBS at 37 °C at 280 rpm for 10 min. The absorbance was measured at 475 nm and all experiments were performed in triplicate to determine the IC50 of the samples. The cellular tyrosinase inhibitory activity was calculated with the following equation: % Cellular tyrosinase inhibition=[(C)-(S)/(C)]×100, where, C are defined as in the previous section.

For series [1], the system named is tyrosinase. As to conditions: KNN machine learning model, 425 sequence features; cited from earlier work. An excerpt:
(§1) Table 1 Abalone predicted TIPs by KNN and RF-based predictors and the predicted antioxidant scores by AnOxPePred 1.0 program. | column: Predicted Anti-Tyrosinase Probability / KNN Predictor || Previously, our research team proposed the in-house machine learning-based anti-tyrosinase prediction tool, which provides thousands of potential peptides. The probability scores of all 1079 peptides from KNN-based and RF-based models can be found in the supplementary file of the previous article by Kongsompong et al.. The KNN and RF predictors were trained and tested against 133 peptides with known anti-tyrosinase properties with 97% and 99% accuracy. The predictions of both models were based on the numeric matrix of 425 features calculated from amino acid composition (20 featur ...

Series [2] has as its system B16F10 melanoma cells. Description: Melanin content assay in UV-induced B16F10 cells. The series is classed as cell-based, murine. As to conditions: for inhibition of melanin content: 70 μM peptide, UVA/UVB-induced B16F10 cells, triplicate. How it is done: Cellular melanin content was measured using a modified method by Jegal, et al.. B16F10 cells were seeded at 5 × 10^5 cells/mL in 24-well plates. […] After that, the cells in each well were washed and replaced by PBS. The UV stimulation process was performed by the exposure to UVA (314-400 nm, 3.0 W) and UVB (280-315 nm, 13.6 W) for 22 s. Then, PBS was replaced with media and further incubated for 24 h. The UV-stimulated cells were then trypsinized and centrifuged at 1500 rpm for 5 min. The cell pellet was then dissolved in 2 M NaOH at 60 °C for 1 h to solubilize the melanin. The melanin content was estimated by measuring the absorbance at 405 nm. The melanin content was calculated with the following equation: % Melanin content=(S)/(C)×100, where, S is the OD405 of sample and C represents the OD405 of control. All experiments were performed in triplicate.

Series [3] relates to tyrosinase. The following applies: RF machine learning model, 425 sequence features; cited from earlier work.
Text: as §1, with “/ RF” for “/ KNN”

For the next series, the target named is mushroom tyrosinase (Agaricus bisporus, UniProt C7FF04). Description: Mushroom tyrosinase activity assay (L-DOPA oxidation, diphenolase). In kind it is biochemical. As to conditions: L-DOPA substrate, up to 500 μM. How it is done:
The inhibitory effect on mushroom tyrosinase was determined spectrophotometrically via L-DOPA oxidation. The reaction mixture consisted of 20 μL of hdTIPs, 140 μL of 100 mM sodium phosphate buffer (pH6.8) and 40 μL of 200 units/mL mushroom tyrosinase (EC 1.14.18.1; Sigma, Saint Louis, USA) placed in a 96-well microplate, then incubated for 10 min. After that, 20 μL of 5mM L-DOPA were mixed into each well over 20 min. Furthermore, the amount of dopachrome produced absorbance was measured at 475 nm. In addition, KA was used as the positive control at the same concentrations and conditions to hdTIPs. This method was modified from Kim et al..
The mushroom tyrosinase inhibitory activity was calculated with the following equation: % Mushroom tyrosinase inhibition=[(C)−(S)/(C)]×100, where, C represents the OD475 of control and S is the OD475 of sample. All experiments were performed in triplicate to determine the IC50 of the samples.

Series [4] has as its system reactive oxygen species (ROS) level in B16F10 cells. Kind of series: ROS level in B16F10 cells after UV exposure (assay kit). The following applies: 70 μM, UV-exposed B16F10 cells, compared to untreated control group. The series is classed as cell-based, murine. Here is the method:
(§2) To determine the antioxidant activity, the centrifugation precipitate from Section 4.6 was dissolved in 1 mL of 1 M NaOH containing 10% DMSO at 80 °C for 1 h. Various assay kits, all from Beijing Solarbio Science & Technology Co., Ltd., Beijing, China, were used to measure the quantity of reduced reactive oxygen species (ROS) and the activity of superoxide dismutase (SOD), catalase (CAT), and glutathione peroxidase (GPx) according to the methods by Hu et al..

A further series concerns catalase (CAT). Kind of series: Antioxidative enzyme activity, catalase (assay kit). The series is classed as cell-based, murine. As to conditions: 70 μM, UV-exposed B16F10 cells. How it is done:
as §2

In series [5] the test system is superoxide dismutase (SOD). Kind of series: Antioxidative enzyme activity, superoxide dismutase (assay kit). In kind it is cell-based, murine. As to conditions: 70 μM, UV-exposed B16F10 cells. Here is the method: as §2
Series [6] concerns B16F10 melanoma cells. Kind of series: Cell viability assay (MTT assay). The series is classed as cell-based, murine. The following applies: 0–1000 μg/mL, 24 h. How it is done:
The number of viable cells was determined by the ability of mitochondria to convert MTT to formazan dye. The quantity of formazan formed is proportional to the number of viable cells present and can be measured spectrophotometrically. The method for MTT assay in this study was modified from Zaidi et al.. […] After 24 h incubation, 1 mg/mL of MTT (Invitrogen, Eugene, USA) solution was replaced prior to incubation at 37 °C for 3 h. The formazan precipitates were dissolved by 100 μL of dimethyl sulfoxide (DMSO) and the concentrations were measured at 570 nm in a microplate reader (Synergy H1, BioTek, Santa Clara USA). Cell viability was calculated using the following formula: cell viability (%) = (Asample/Acontrol) × 100, where Asample and Acontrol are the absorbances from the mixture with or without the addition of test sample, respectively.

Chain of mushroom tyrosinase (C7FF04 1-392): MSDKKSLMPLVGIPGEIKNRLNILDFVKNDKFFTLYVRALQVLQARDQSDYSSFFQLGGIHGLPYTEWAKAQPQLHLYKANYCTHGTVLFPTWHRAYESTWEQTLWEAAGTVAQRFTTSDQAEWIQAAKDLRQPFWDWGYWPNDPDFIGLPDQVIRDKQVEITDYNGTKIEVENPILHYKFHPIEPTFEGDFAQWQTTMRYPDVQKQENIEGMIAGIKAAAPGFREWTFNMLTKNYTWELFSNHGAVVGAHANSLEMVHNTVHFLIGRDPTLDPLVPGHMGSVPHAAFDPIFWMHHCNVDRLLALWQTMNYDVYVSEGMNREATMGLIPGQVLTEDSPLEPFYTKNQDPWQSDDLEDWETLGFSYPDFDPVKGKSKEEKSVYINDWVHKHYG
Chain of mushroom tyrosinase (G1K3P4 1-150 partner): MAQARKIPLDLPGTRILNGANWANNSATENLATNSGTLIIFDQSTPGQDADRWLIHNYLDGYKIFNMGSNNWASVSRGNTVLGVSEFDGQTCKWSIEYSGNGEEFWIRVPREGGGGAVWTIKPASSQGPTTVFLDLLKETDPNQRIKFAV

As for `CC[C@H](C)[C@H](NC(=O)[C@@H](N)CC(N)=O)C(=O)N[C@@H](CS)C(=O)N[C@@H](CCC(=O)O)C(=O)N[C@@H](CS)C(=O)N[C@@H](CCSC)C(=O)N[C@@H](CCCCN)C(=O)O` [KNN1] (H-NICECMK-OH; N-terminus and C-terminus assumed), the “inhibition of cellular tyrosinase” value against cellular tyrosinase is reported as “unable to inhibit”. Besides, the “Predicted Anti-Tyrosinase Probability KNN Predictor” value in the series with tyrosinase [1] was 1.00. Further, the “inhibition of melanin content” value in the series on B16F10 melanoma cells [2] is recorded as “unable to inhibit; also recorded: did not inhibit”. In addition, the “Predicted Anti-Tyrosinase Probability RF Predictor” value in the series on tyrosinase [3] is 0.39.

Consider `CC(C)[C@H](NC(=O)[C@H](CCCNC(=N)N)NC(=O)[C@H](Cc1ccc(O)cc1)NC(=O)[C@H](CC(N)=O)NC(=O)[C@H](CCCCN)NC(=O)[C@@H](N)CCCCN)C(=O)N[C@@H](CO)C(=O)N[C@@H](CCC(=O)O)C(=O)N[C@@H](C)C(=O)N[C@@H](Cc1ccc(O)cc1)C(=O)N[C@@H](CCCCN)C(=O)O` [KNN3] (H-KKNYRVSEAYK-OH; N-terminus and C-terminus assumed), for which the “Predicted Anti-Tyrosinase Probability KNN Predictor” value in the series with tyrosinase [1] is listed as 1.00. Also, the “Predicted Anti-Tyrosinase Probability RF Predictor” value in the series on tyrosinase [3] is on record as 0.32.

On to `C[C@H](NC(=O)[C@@H](N)CO)C(=O)N1CCC[C@H]1C(=O)N[C@H](C(=O)N[C@@H](Cc1ccccc1)C(=O)N[C@@H](Cc1ccccc1)C(=O)N[C@@H](CCCNC(=N)N)C(=O)O)[C@@H](C)O` [RF1] (H-SAPTFFR-OH; N-terminus and C-terminus assumed), for which, at cellular tyrosinase, the “inhibition of cellular tyrosinase” value was 18.26%. In addition, on mushroom tyrosinase, the “inhibitory effect on mushroom tyrosinase (diphenolase activity)” value was “did not inhibit”. Besides, the “effect on relative percentage of ROS in melanoma cells” value (shortened to “effect on relative percentage of ROS”) in series [4] was “significant reductive effects”. In the series with tyrosinase [1], the “Predicted Anti-Tyrosinase Probability KNN Predictor” value is recorded as 0.00. Also, the “inhibition of melanin content” value with B16F10 melanoma cells [2] is recorded as 10.69%. Further, the “Predicted Anti-Tyrosinase Probability RF Predictor” value in the series on tyrosinase [3] is 0.63.

`CC(C)C[C@H](NC(=O)[C@H](CO)NC(=O)[C@H](CO)NC(=O)[C@@H](N)CC(N)=O)C(=O)N[C@@H](CCCNC(=N)N)C(=O)N[C@H](C(=O)N[C@@H](CCC(N)=O)C(=O)N[C@@H](CO)C(=O)N[C@@H](CCCNC(=N)N)C(=O)O)C(C)C` [RF2] (H-NSSLRVQSR-OH; N-terminus and C-terminus assumed): the “inhibitory effect on mushroom tyrosinase (diphenolase activity)” value against mushroom tyrosinase is “did not show any inhibition”. The “Predicted Anti-Tyrosinase Probability KNN Predictor” value in the series with tyrosinase [1] is 0.00. For the same molecule, in the series on tyrosinase [3], the “Predicted Anti-Tyrosinase Probability RF Predictor” value was 0.60.

Regarding `CC(C)[C@H](NC(=O)[C@H](CO)NC(=O)[C@H](CCCNC(=N)N)NC(=O)[C@H](CO)NC(=O)[C@H](CC(N)=O)NC(=O)[C@H](CO)NC(=O)[C@H](CCC(N)=O)NC(=O)[C@@H](N)CO)C(=O)N[C@@H](CO)C(=O)N[C@@H](CCCNC(=N)N)C(=O)O` [RF3] (H-SQSNSRSVSR-OH; N-terminus and C-terminus assumed), the “inhibition of cellular tyrosinase” value on cellular tyrosinase was found to be 5.11%. The “effect on relative percentage of ROS” value in series [4] was “significant reductive effects”. For the same molecule, in the series with catalase (CAT), the “effect on CAT activity” value is recorded as “affected”. Also, in the series on tyrosinase [1], the “Predicted Anti-Tyrosinase Probability KNN Predictor” value is 0.00. In series [5], the “effect on SOD activity” value is recorded as “affected”. The “inhibition of melanin content” value in the series on B16F10 melanoma cells [2] amounted to 6.09%. The “Predicted Anti-Tyrosinase Probability RF Predictor” value in the series on tyrosinase [3] is reported as 0.52.

With `C[C@H](NC(=O)[C@H](CC(=O)O)NC(=O)[C@H](CO)NC(=O)[C@H](CO)NC(=O)[C@H](C)NC(=O)[C@@H](N)[C@@H](C)O)C(=O)N[C@@H](Cc1c[nH]c2ccccc12)C(=O)N[C@@H](Cc1ccc(O)cc1)C(=O)N[C@@H](CCCNC(=N)N)C(=O)O` [TIP1] (H-TASSDAWYR-OH; N-terminus and C-terminus assumed), the “effect on relative percentage of ROS” value in [4] is on record as “significant reductive effects”.

As to `CSCC[C@H](NC(=O)[C@H](Cc1ccccc1)NC(=O)[C@@H]1CCCN1C(=O)[C@H](C)NC(=O)[C@@H](N)CO)C(=O)N1CCC[C@H]1C(=O)N[C@@H](CC(=O)O)C(=O)N[C@@H](C)C(=O)N[C@@H](Cc1ccccc1)C(=O)N[C@@H](Cc1ccccc1)C(=O)N[C@@H](CCCNC(=N)N)C(=O)N[C@@H](CC(N)=O)C(=O)N[C@H](C(=O)O)C(C)C` [TIP2] (H-SAPFMPDAFFRNV-OH; N-terminus and C-terminus assumed), at cellular tyrosinase, the “inhibition of cellular tyrosinase” value amounted to 3.32%. Besides, the “inhibition of melanin content” value in the series on B16F10 melanoma cells [2] was determined as 6.71%.

As for `OC[C@H]1O[C@@H](Oc2ccc(O)cc2)[C@H](O)[C@@H](O)[C@@H]1O` [arbutin, reference compound], the “effect on cell proliferation of melanoma cells” value in the series on B16F10 melanoma cells [6] is on record as “did not affect the cell proliferation”.

In general, inhibition refers to how much of the control response was suppressed. For the molecule `O=c1cc(CO)occ1O` [kojic acid, reference compound], testing at 100 µg/mL in the series on B16F10 melanoma cells [2] (Mus musculus, B16-F10, light or radiation study) gave an inhibition of 21.1%.
